Results: patent US7939568B2, “Use of a composition comprising vitamin K1 oxide or a derivative thereof for the treatment and/or the prevention of mammal dermatological lesions” (Auriga International S.A., priority 2003, dated 2011)

Experiments:
[1] = Transformation in presence of light; assay type: physicochemical
Description: The improved stability of vitamin K1 oxide compared to vitamin K1, reduces also unexpectedly the side effects of a cosmetic composition. […] Such transformation of vitamin K1 oxide is not observed in the presence of light and these side effects are not present when the cosmetic composition according to the invention is applied upon mammal skin.

[2] = Formation of chromophoric group on mixing with retinol; assay type: physicochemical; conditions: mixing with retinol (or retinol palmitate)

SMILES	transformation into Menadione (vitamin K3) and 1.4.Naphtoquinone [1]	formation of chromophoric group [2]
CC1=C(C/C=C(\C)CCC[C@H](C)CCC[C@H](C)CCCC(C)C)C(=O)c2ccccc2C1=O [vitamin K1, 2-methyl 3-phytyl-1,4-naphtoquinone]	transformed into Menadione (vitamin K3) and 1.4.Naphtoquinone	–
CC(=CCC12OC1(C)C(=O)c1ccccc1C2=O)CCCC(C)CCCC(C)CCCC(C)C (stereo not drawn) [vitamin K1 oxide]	not observed	does not allow the formation of chromophoric group
